Entries after “also recorded” stand apart in the source; their conditions may differ. Marks after values point to notes of the source that are not given here.

For data set [1] the following is noted: cited from earlier work.
The conditions of data set [2]: most frequent cutaneous adverse reaction reported by the FDA Adverse Event Reporting System; cited from earlier work.
The subject of data set [3] is Keratinocytes. In words: WST-8 viability and proliferation assay. The format is cell-based, human. The following applies: keratinocytes exposed for 24 h, relative to vehicle (FIG. 5a). From the text: The Water-Soluble Tetrazolium Salts (WST-8) Colorimetric Cell Proliferation Kit (Promokine, Heidelberg, Germany) provides a rapid and sensitive way to quantify proliferation and cell viability. Cell proliferation causes an increase in the amount of formazan dye formed that can be quantified by measuring the absorbance of the dye solution at […] using a microtiter plate reader (Perkin Elmer EnVision 2103 Multilabel Reader, Waltham, MA, USA). Cellular proliferation induces an increase in the activity of mitochondrial dehydrogenases, which cleaves the tetrazolium salt […] into formazan. 15,000 Keratinocytes per well were seeded on 96-well plate, once confluence reach, drug concentration used were +/−½ log of the plasmatic concentration. 10 μl of Colorimetric Cell Viability Kit is added and completed with 360 μl of culture media, results were read after 4 h at 450 nm to determine cell viability. Results were obtained with 6 donors of keratinocytes in 2 experiments
A general note: Formazan colour is commonly taken as a measure of viable cells.

Data set [4] has as its system filaggrin (FLG). Nature of the data set: 3D micro-epidermis model (EpiScreen): filaggrin immunostaining.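 Further: human primary epidermal keratinocytes differentiated in high calcium into 3D micro-epidermises, compound-treated for three days, imaged by confocal high-content microscopy, filaggrin staining intensity quantified within actin-segmented structures.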 The data set is classed as cell-based, human.
Data set [5] concerns Human epidermal keratinocytes cells (HPEKs), 3D micro-epidermis. Nature of the data set: 3D micro-epidermis model (EpiScreen): epidermis size, toxicity, dose response, classification.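 Further: keratinocytes on micropatterned discs in high-calcium medium, drug exposure for three days, then fixation and confocal high-content imaging of actin, nuclei and a marker, vehicle DMSO-matched.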 The data set is classed as cell-based.
For data set [6], the system named is caspase-3 activity in keratinocytes. In words: Caspase-3 fluorometric assay (cell apoptosis). The format is cell-based, human. The following applies: 2.59 nM and 25.89 nM, 24 h (FIG. 5b). From the text: The kit (biotium, Fremont, CA, USA) provides a homogenous assay system for fast and highly sensitive detection of caspase-3 activity by fluorescence in enzymatic reaction or mammalian cells. The fluorogenic substrate (Ac-DEVD) 2-R110 contains two DEVD (Asp-Glu-Val-Asp) tetrapeptides and is completely hydrolyzed by the enzyme in two successive steps. Cleavage of the first DEVD peptide results in the monopeptide Ac-DEVD-R110 intermediate, which has absorption and emission wavelengths similar to those of R110 (Ex/Em=496/520 nm) but has only about 10% of the fluorescence of the latter. Hydrolysis of the second DEVD peptide releases the dye R110, leading to a substantial fluorescence increase. Keratinocytes were plated at 15,000 cells per well in 100 μl of medium in a 96-well black microplate. They were allowed to attach and grow overnight in a 37° C., 5% CO2 incubator. They were then treated for 20 h with a 1:2 dilution series of staurosporine, a caspase 3 inducer. Imaging was performed on Perkin Elmer EnVision 2103 Multilabel Reader using an excitation wavelength of 490 nm and emission wavelength of 535 nm. Cells were incubated at room temperature for 15 min, protected from light. Results were obtained with 6 donors of keratinocytes in 2 experiments

The subject of data set [7] is SkinEthic Reconstructed Human Epidermis (RHE). Nature of the data set: Skin barrier function: trans-epidermal water loss (TEWL) on reconstructed human epidermis. The data set is classed as cell-based. The conditions noted are these: day 7; SDS 0.5% topical; afatinib 100 nM in the media. How it is done:
The effect of drugs on the skin barrier function was assessed by measuring trans-epidermal water loss (TEWL) rates on SkinEthicTM Reconstructed Human Epidermis (RHE) model (Episkin, Lyon, France) using Tewitro® TW 24 (Courage+Khazaka electronic GmbH, Köln, Germany). This instrument allows 24 simultaneous measurements on RHE. TEWL was analyzed at 33° C. in an incubator. […] Petrolatum, a highly hydrophobic hydrocarbon, water-repelling and insoluble in water was used to block water evaporation at the RHE surface (negative control). […] DMSO was used in the same proportion in the vehicle. SkinEthicTM RHE (Episkin, Lyon, France), is an in vitro reconstructed human epidermis from normal human keratinocytes cultured on an inert polycarbonate filter at the air-liquid interface, in a chemically defined medium. This model exists at different stages of maturity. This model is histologically similar to in vivo human epidermis. See […].com/SkinEthic%20RHE. The Tewitro® TW 24 is a device that measures water evaporation from cultured tissue sets (wells in a plate with medium) in up to 24 wells simultaneously. See https://www.courage-[…].

`CN(C)C/C=C/C(=O)Nc1cc2c(Nc3ccc(F)c(Cl)c3)ncnc2cc1O[C@H]1CCOC1` [Afatinib]: in data set [1] (maximal plasma concentration after a single daily-recommended dose, human), the Cmax was 32 nM. In addition, the Unbound concentration in data set [1] (unbound plasma concentration, identified or calculated from Cmax and unbound fraction) is given as 1.6 nM. Moreover, in data set [1] (unbound to plasma protein), the Unbound fraction is reported as 5%*. In addition, in data set [2], the “Major Skin Effect” value is “Rash”. Also, the cell viability result in data set [3] is “decreases; also recorded: significant effect”. Also, the “FLG 3 nM” value in data set [4] (3 nM, supplementary data) is 4%. Further, the “FLG 30 nM” value in data set [4] (30 nM, supplementary data) is listed as 19%. The activation at 0.01 µM in data set [4] (Homo sapiens, 72 h, 10 nM, supplementary data, two runs, read-out: FLG 10 nM) was determined as 12%. Further, the FLG expression result in data set [4] (Table 1 summary) is recorded as “Increased”. Further, in data set [4] (concentration (afatinib 10 and 30 nM; pan-kinase inhibitors 100 nM)), the “filaggrin expression” value is given as “significantly increased; also recorded: increased in a dose-dependent manner”. Moreover, in data set [5] (1 μM, micro-epidermis), the “Toxicity at 1 μM” value is “Yes”. Moreover, the “effect on desmoglein-1, involucrin and filaggrin expression (dose dependence)” value in data set [5] (3, 10, 30 nM) is recorded as “increases; also recorded: dose-dependent manner”. In addition, the Epidermis size result in data set [5] (Table 1 summary of drug effect on epidermis) is given as “Decreased”; in data set [5] (Table 3, 30 nM (EGFRi) or 100 nM (VEGFRi), 3 days, vs untreated control, superscript = significance footnote) it was “Decreased^2”. Further, the Classification result in data set [5] (Table 1 summary, pro-differentiation / pro-proliferation) is “Pro-differentiation”; in data set [5] (Table 3, pro-proliferation or pro-differentiation), “Pro-”. Further, the Dose in response result in data set [5] (Table 3, variation of protein expression at 3, 10, 30 nM (EGFRi) or 3, 10, 30, 100 nM (VEGFRi), markers in brackets) is listed as “Yes”. In addition, the “toxicity at higher drug concentration” value in data set [5] (above 1 μM, micro-epidermis) is given as “toxic leading to epidermal necrosis”. In data set [5] (concentration (afatinib 3-30 nM; pan-kinase inhibitors up to 100 nM)), the “micro-epidermis size / epidermal volume” value is on record as “significantly decreased; also recorded: significantly reduced”. The Dose/response entry in data set [5] (supplementary table, per run (1st or 2nd Run), markers in brackets) is “Yes (DSG, IVL,”. For the same compound, the cell apoptosis result in data set [6] was “does not induce apoptosis; also recorded: did not show any effect; also recorded: not affected”. Also, the “increase of the TEWL rate” value in data set [7] is on record as “no significant change”.

A word on the Cmax: it is the peak of the concentration-time curve.
